Biological target: T1, c-MYC (Homo sapiens, UniProt P01106)
T1 construct: human recombinant c-MYC protein (Abcam ab169901)
Test: microscale thermophoresis with RED-NHS labelled recombinant c-MYC
Format: binding

T1 sequence (P01106 16-454): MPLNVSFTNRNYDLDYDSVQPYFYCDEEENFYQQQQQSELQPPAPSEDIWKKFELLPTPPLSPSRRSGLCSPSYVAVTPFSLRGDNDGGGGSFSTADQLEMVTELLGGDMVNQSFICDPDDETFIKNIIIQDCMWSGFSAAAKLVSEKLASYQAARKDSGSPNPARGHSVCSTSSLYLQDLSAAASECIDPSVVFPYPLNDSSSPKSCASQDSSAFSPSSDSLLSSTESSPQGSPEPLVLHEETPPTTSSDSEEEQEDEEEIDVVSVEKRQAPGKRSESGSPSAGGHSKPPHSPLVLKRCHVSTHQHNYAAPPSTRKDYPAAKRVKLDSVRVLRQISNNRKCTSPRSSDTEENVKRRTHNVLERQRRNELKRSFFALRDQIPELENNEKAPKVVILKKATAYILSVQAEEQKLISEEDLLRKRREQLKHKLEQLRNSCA

Question: For Cc1ccc(NC(=O)N2Cc3[nH]cnc3C[C@H]2c2nc(-c3ccc4ccccc4c3)no2)cc1 [ZINC15675948, (6S)-N-(4-methylphenyl)-6-(3-naphthalen-2-yl-1,2,4-oxadiazol-5-yl)-3,4,6,7-tetrahydroimidazo [4,5-c]pyridine-5-carboxamide], which Kd is on record?
Answer: The Kd was 1.08 ± 0.1 µM.
